The source of these data is PubChem BioAssay (NCI).

Some test systems named below: HS 578T breast; MCF7 breast; MDA-MB-231 breast; MDA-MB-435; NCI/ADR-RES ovarian; T-47D breast; KM20L2 colon; LXFL 529 NSCLC; SNB-78 CNS; M19-MEL melanoma.
Common to all, as to assay: NCI tumour cell line growth inhibition, 48 h

The structures appear in SMILES notation. Values joined by “and” are separate entries in the source; they are usually repeats but may differ in a detail not shown here. Identical values can stand only once.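 Growth conditions: 96-well plates. Treatment: test compound, 48 hours, 5 concentrations. Analysis: linear interpolation between bracketing concentrations; unreached endpoints set to highest concentration. Here, GI50 denotes the concentration required for 50% inhibition of growth. The concentration for full growth arrest is given as TGI.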 Where only a bound is given, the exact number is not on record here.

In the case of `CC(C)(C)[Si](C)(C)OCC1CCC(n2cnc3c(NC(=O)c4ccccc4)ncnc32)O1` (stereo not given), the TGI turned out to be 33 µM in the test with HS 578T breast; 45.1 µM with MCF7 breast; 37.1 µM in the test with MDA-MB-231 breast; 29.2 µM in the test with MDA-MB-435; 33.4 µM in the test on NCI/ADR-RES ovarian; 60.6 µM with T-47D breast.

Regarding `COc1cc(/C=C(/C)[N+](=O)[O-])ccc1O`, the GI50 is 4.67 µM in the test on HS 578T breast; 1440 nM and 1370 nM with MCF7 breast; 2140 nM and 2640 nM in the test on MDA-MB-231 breast; 2160 nM and 1640 nM with MDA-MB-435; 3.18 µM and 3.08 µM with NCI/ADR-RES ovarian; 2070 nM and 2250 nM with T-47D breast. Besides, the TGI was over 28.4 µM with HS 578T breast; 3.39 µM and 2.9 µM in the test with MCF7 breast; 5.5 µM and 7.44 µM in the test on MDA-MB-231 breast; 6.33 µM and 4.4 µM in the test on MDA-MB-435; 11.8 µM and 10.9 µM in the test with NCI/ADR-RES ovarian; 5.05 µM and 5.72 µM with T-47D breast.

For `C=C1C(=O)O[C@H]2[C@H]1CC/C(COC(=O)C(=O)c1c[nH]c3ccccc13)=C\CC[C@@]1(C)O[C@@H]21`, the GI50 in the test on HS 578T breast was 4.89 µM; with MCF7 breast it was 2160 nM; in the test with MDA-MB-231 breast, 2460 nM; in the test on MDA-MB-435, 2630 nM; in the test on NCI/ADR-RES ovarian it was 3.92 µM; in the test with T-47D breast, 1610 nM. For the same compound, the TGI in the test with HS 578T breast is over 100 µM; with MCF7 breast, 8.83 µM; with MDA-MB-231 breast, 5.5 µM; in the test on MDA-MB-435, 9.82 µM; with NCI/ADR-RES ovarian it was 19.4 µM; in the test with T-47D breast, 4.47 µM.

In the case of `Cn1ccnc1C(=O)/C=C/c1ccc(CC(=O)Nc2ccc(Cl)cc2)cc1`, the GI50 is 15.7 µM in the test on HS 578T breast; 891 nM in the test on MCF7 breast; 5230 nM in the test on MDA-MB-231 breast; 9160 nM in the test with MDA-MB-435; 2.22 µM in the test on NCI/ADR-RES ovarian; 4300 nM in the test with T-47D breast. Besides, the TGI with HS 578T breast, with MCF7 breast, in the test with MDA-MB-231 breast, in the test on MDA-MB-435, in the test with NCI/ADR-RES ovarian and in the test with T-47D breast was over 25 µM each time.

Consider `O=C(/C=C/c1ccco1)c1ccc(Nc2nc(Nc3ccc(F)cc3)nc(Nc3ccc(Cl)cc3)n2)cc1`, for which the GI50 is 26 µM in the test with HS 578T breast; 1840 nM in the test on MCF7 breast; 16200 nM in the test on MDA-MB-231 breast; 30500 nM in the test with MDA-MB-435; 26.1 µM with NCI/ADR-RES ovarian; 20300 nM in the test with T-47D breast. Further, the TGI in the test on HS 578T breast is over 91.4 µM; in the test with MCF7 breast, 34.1 µM; with MDA-MB-231 breast, 61.9 µM; in the test with MDA-MB-435, over 59.6 µM; with NCI/ADR-RES ovarian it was over 100 µM; in the test with T-47D breast, over 100 µM.

As to `O=C(Nc1ccc(Cl)c([N+](=O)[O-])c1)Nc1nc2ccccc2s1`, the GI50 with HS 578T breast is 2.85 µM; in the test with MCF7 breast, 3020 nM; in the test with MDA-MB-231 breast it was 3500 nM; in the test with MDA-MB-435 it was 2730 nM; with NCI/ADR-RES ovarian, 2.86 µM; with T-47D breast, 2480 nM. In addition, the TGI was 12.3 µM with HS 578T breast; 15.5 µM with MCF7 breast; 12.1 µM in the test with MDA-MB-231 breast; 8.15 µM in the test with MDA-MB-435; 11.9 µM in the test with NCI/ADR-RES ovarian; 10.6 µM in the test on T-47D breast.

Turning to `CN(C)CCNC(=O)c1ccc(Nc2nc3ccccc3c3occc23)cc1`, the GI50 in the test with HS 578T breast is 18.6 µM; in the test with MCF7 breast, 49300 nM; in the test with MDA-MB-231 breast, 1540 nM; in the test with MDA-MB-435, 1950 nM; in the test on NCI/ADR-RES ovarian it was 8.92 µM; in the test with T-47D breast, 16400 nM. For the same compound, the TGI in the test on HS 578T breast was 42.1 µM; with MCF7 breast, over 100 µM; in the test with MDA-MB-231 breast, 4.14 µM; in the test on MDA-MB-435 it was 3.94 µM; with NCI/ADR-RES ovarian, 22.6 µM; with T-47D breast, 39.8 µM.

For `CC(Cn1c2c3ccccc3ccc2c2oc(=O)c3ccccc3c21)N(C)C` (stereo not given), the TGI with KM20L2 colon, with LXFL 529 NSCLC and with SNB-78 CNS was over 100 µM in each case.

For the compound `CCN1C(=O)C/C(=C\C(C)=O)Nc2ccccc21`, the GI50 was over 100 µM in the test with HS 578T breast; over 100000 nM in the test on MCF7 breast; over 100000 nM in the test on MDA-MB-231 breast; over 100000 nM with MDA-MB-435; over 100 µM in the test on NCI/ADR-RES ovarian; over 100000 nM in the test with T-47D breast. Also, the TGI with HS 578T breast, in the test with LXFL 529 NSCLC, in the test with M19-MEL melanoma, with MCF7 breast, in the test with MDA-MB-231 breast and in the test with MDA-MB-435 was over 100 µM each time. Further, the TGI in the test on NCI/ADR-RES ovarian, with SNB-78 CNS and in the test with T-47D breast was over 100 µM throughout.

Consider `O=C1c2ccccc2-c2c1c1ccccc1c(=O)n2CCCNCCCn1c2c(c3ccccc3c1=O)C(=O)c1ccccc1-2`, for which the GI50 with HS 578T breast was 9.54 µM; with MCF7 breast, 1330 nM; in the test with MDA-MB-231 breast, 1090 nM; in the test on MDA-MB-435, 9340 nM; in the test with NCI/ADR-RES ovarian, 3.94 µM; with T-47D breast, 10700 nM. Besides, the TGI was 32.9 µM in the test with HS 578T breast; over 10.5 µM in the test with MCF7 breast; 4.25 µM in the test with MDA-MB-231 breast; 22.9 µM with MDA-MB-435; 17.3 µM in the test on NCI/ADR-RES ovarian; 27.7 µM in the test with T-47D breast.

On to `COc1ccc(CN2C(=O)/C(=C\c3cc(OC)c(OC)c(OC)c3)c3cc(OC)ccc32)cc1`, for which the GI50 in the test on HS 578T breast was 2.4 µM; in the test on MCF7 breast, 2910 nM; in the test on MDA-MB-231 breast it was 2890 nM; in the test on MDA-MB-435, 2880 nM; with NCI/ADR-RES ovarian it was 2.69 µM; in the test with T-47D breast, 2340 nM. For the same compound, the TGI was 8.72 µM in the test with HS 578T breast; 11.8 µM with MCF7 breast; over 100 µM with MDA-MB-231 breast; 8.88 µM in the test with MDA-MB-435; 9.11 µM in the test on NCI/ADR-RES ovarian; 7.62 µM in the test with T-47D breast.
